Experimental data from patent US20050261283A1, “Methods and compositions for the treatment of graft failure” (priority 2002, published 2005).
Values after ≈ are worked out from the molar mass of the structure shown. Where a name gives a salt, the structure may show the parent alone.

Experiments:
[1] = system: human aortic vascular smooth muscle cell (HASOM cells); assay: PDGF-BB induced migration of human aortic vascular smooth muscle cells, Boyden chamber; format: cell-based
Procedure: The cells were then cultured in the presence of these agents for forty-eight hours prior to the migration assay. […] Each well contained an insert with a polycarbonate filter having 8 μm pores. In preparation for the migration assays, the membranes were coated with 0.1% gelatin for 8 hours, aspirated, and allowed to dry for 2 hours.
The M-199 media containing 0.5% BSA and 20 ng/ml human PDGF-B (hPDGF-BB) was placed in the bottom Boyden chamber. Cells were incubated at 5% CO2 at 37° C. for twelve hours and the cells lying on the upper surface of the membrane were scraped off. The insert membranes were removed and the cells on the lower surface of each membrane were stained with hematoxylin. Cell migration was then quantified by counting the cells in five random high-power fields on the lower surface of the membrane. All assays were run in triplicate.

[2] = system: cells of porcine origin from a primary explant of porcine carotid artery; assay: PDGF induced migration of cells of porcine origin (carotid artery explant), Boyden chamber; format: cell-based; settings: hPDGF-BB 20 ng/ml; second passage cells; FIG. 13

Row | IC50 ([1]; Homo sapiens, in vitro VSMC migration, read-out: IC50 for blocking VSMC migration) [ng/mL] | Compound | inhibition of PDGF induced migration of HASOM cells ([1]; hPDGF-BB 20 ng/ml, 48 h pre-treatment, 12 h migration, FIG. 12) | inhibition of PDGF-B induced migration of porcine cells [2]
1 | – | Cc1ccc(NC(=O)c2ccc(CN3CCN(C)CC3)cc2)cc1Nc1nccc(-c2cccnc2)n1 [Gleevec, imatinib mesylate] | potently inhibited PDGF induced migration of HASOM cells in a dose dependent manner | inhibited PDGF-B induced migration of theses porcine cells a dose dependent manner
2 | 1 to 5 (≈ 1.09 to 5.47 nM) | CO[C@H]1C[C@@H]2CC[C@@H](C)[C@@](O)(O2)C(=O)C(=O)N2CCCC[C@H]2C(=O)O[C@H]([C@H](C)C[C@@H]2CC[C@@H](O)[C@H](OC)C2)CC(=O)[C@H](C)/C=C(\C)[C@@H](O)[C@@H](OC)C(=O)[C@H](C)C[C@H](C)/C=C/C=C/C=C/1C [rapamycin] | – | –
